Test results published in patent publication US8263649B2, “Benzofuran type derivatives, a composition comprising the same for treating or preventing cognitive dysfunction and the use thereof” (Medifron DBT Co., Ltd., priority 2006, dated 2012).

Experiments:
[1] = test system: HT22 mouse neuronal cell line treated with aggregated beta amyloid 25-35; experiment: Inhibition test of beta amyloid toxicity (MTT); format: cell-based; details: HT22 cells, 25 μm aggregated beta amyloid 25-35, 18 hours
Procedure: To determine the inhibitory activity of the compounds prepared in Examples on beta-amyloid toxicity, following test was performed according to the procedure disclosed in the literature (Gillardon, F. et al., Brain Research, 706(1), pp. 169-172, 1996).
HT22 mouse neuronal cell line was incubated in DMEM (Dulbecco's Modified Eagle's Medium, Gibco-BRL) medium supplemented with 10% FBS (Fetal Bovine Serum, Hyclone) and 1% penicillin/streptomycin (Sigma Co.). Prior to test, HT22 cell was incubated on 96 well plates with a density of 5×10^3 cell/well and further incubated in serum free DMEM medium for 1 hour before the treatment of test sample. Various concentration of compounds prepared in Examples used as a test sample was added thereto and incubated for 1 hour. Aggregated beta amyloid 25-35 (US peptide) was treated thereto to the concentration of 25 μm and incubated for 18 hours to induce cell necrosis. 5 mg/ml of MTT (3-(4,5-dimethyl-2-thiazolyl)-2,5-diphenyl-2H-tetrazolium bromide) solution was added each well with 15 μl/well and the well was incubated for 4 hours. Dissolving buffer solution (10% SDS, 50% dimethyl formamide, pH 4.7) was added to each well with 100 μl/well and reacted for overnight. 18 hours after the reaction, the absorbance of solution was determined by microplate reader (SAFIRE, TECAN) at 570 nm/630 nm wavelength (Gillardon, F. et al., Brain Research, 706(1) pp 169-172, 1996).

[2] = test system: ICR mouse administrated aggregated beta amyloid 1-42; experiment: AD acute model experiment - passive avoidance test; format: in vivo
Procedure: For passive avoidance test, male ICR mouse weighing 25 g purchased from Samtaco Co. was bred with five mice per cage and the cage was kept with following condition maintaining the temperature of 22±2° C. and the relative humidity of […] under the regularly controlled light/dark condition with an interval of 12 hours.
Synthetic beta amyloid 1-42 (BACHEM) was dissolved in DMSO in order to be 250 μm solution and diluted with PBS to […] and aggregated at 37° C. for four days (Passive Avoidance test) or six days (Y maze test).
Aggregated beta amyloid 1-42 was administrated into the mice according to the procedure disclosed in the literature (Lausen & Belknap, J. Pharmacol. Methods, 16 pp 355-357, 1986).
[…] beta amyloid 1-42 was administrated into the 2.4 mm depth of bregma region with 50 μl of Hamilton micro-syringe equipped with 26-gauge needle. The behavior tests were divided into Y maze test and PA (passive avoidance) test after the beta amyloid administration. […]
During the first acquisition trial, each mouse was placed in the lighted compartment; as soon as they entered the dark compartment, the door was closed, and they received an electric shock through the grid floor (0.6 Ma, 3 s). […] 24 hours after the training trial, the mice were again placed in the lighted compartment and the time until they re-entered the dark compartment was measured (step-through latency). […]

[3] = target: T1, beta amyloid 1-42 (Homo sapiens, UniProt P05067); experiment: Inhibition test of beta amyloid aggregation (Thioflavin T fluorescence); format: biochemical; details: FIG. 1
T1 construct: Synthetic beta amyloid 1-42 (BACHEM); purchased BACHEM; host or cells: synthetic peptide
T1 sequence (P05067 672-713): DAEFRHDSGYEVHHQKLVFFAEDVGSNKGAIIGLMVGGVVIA
Procedure: Synthetic beta amyloid 1-42 (BACHEM) was dissolved in DMSO in order to 250 μm solution and diluted with PBS into 1/10 on fluorescent black plate to induce aggregation. By comparing with inhibition activity of the tanshinone compounds prepared in Example 1 on beta amyloid aggregation, the test sample showing more than 50% inhibition activity at 10 μg/ml was chosen to use and added to react for 1 hour at room temperature. ThT (Thioflavin T) was diluted with 50 mM glycine buffer solution and the diluted solution was added to each well by 150 μl/well. The absorbance was determined by microplate reader (SAFIRE, TECAN) at 450 nm excitation wavelength/480 nm emission wavelength and the inhibition activity of the test sample on beta amyloid aggregation was transformed into IC50.

SMILES: COCCCc1ccc2oc(-c3ccc(OC)c(OC)c3)cc2c1 [Compound 18b, 2-(3,4-dimethoxy-phenyl)-5-(3-methoxy-propyl)-benzofuran]
- inhibition effect on beta-amyloid toxicity [1]: potent inhibition effect
- recovering effect on memory learning damaged by beta-amyloid (passive avoidance, step-through latency) ([2]; mice, oral, three days, FIG. 4): potent recovering effect
- effect on the memory learning capacity (passive avoidance), best dose group ([2]; treatment group with more than 100 mg/kg, FIG. 5): most excellent effect
- inhibitory effect on the aggregation of beta amyloid [3]: most potent inhibitory effect
